Data taken from patent US8563741B2, “CDK inhibitors containing a zinc binding moiety” (Curis, Inc., priority 2007, dated 2013).

What was measured:
Assay type in all cases: biochemical
HDAC = HDAC fluorimetric assay kit (AK-500, Biomol), HeLa nuclear extract
Experimental: HDAC inhibitors were screened using an HDAC fluorimetric assay kit (AK-500, Biomol, Plymouth Meeting, Pa.). […] Each assay was setup as follows: Defrosted all kit components and kept on ice until use. Diluted HeLa nuclear extract 1:29 in Assay Buffer (50 mM Tris/Cl, pH 8.0, 137 mM NaCl, 2.7 mM KCl, 1 mM MgCl2). Prepared dilutions of Trichostatin A (TSA, positive control) and tested compounds in assay buffer (5× of final concentration). Diluted Fluor de LysTM Substrate in assay buffer to 100 uM (50 fold=2× final). Diluted Fluor de LysTM developer concentrate 20-fold (e.g. 50 μl plus 950 μl Assay Buffer) in cold assay buffer. Second, diluted the 0.2 mM Trichostatin A 100-fold in the 1× Developer (e.g. 10 μl in 1 ml; final Trichostatin A concentration in the 1× Developer=2 μM; final concentration after addition to HDAC/Substrate reaction=1 μM). Added Assay buffer, diluted trichostatin A or test inhibitor to appropriate wells of the microtiter plate. Added diluted HeLa extract or other HDAC sample to all wells except for negative controls. Allowed diluted Fluor de LysTM Substrate and the samples in the microtiter plate to equilibrate to assay temperature (e.g. 25 or 37° C. Initiated HDAC reactions by adding diluted substrate (25 μl) to each well and mixing thoroughly. Allowed HDAC reactions to proceed for 1 hour and then stopped them by addition of Fluor de LysTM Developer (50 μl). Incubated plate at room temperature (25° C.) for 10-15 min. Read samples in a microtiter-plate reading fluorimeter capable of excitation at a wavelength in the range 350-380 nm and detection of emitted light in the range 440-460 nm.

CDK2/cyclinE = molecular target: T1, CDK2/cyclinE (Homo sapiens, UniProt P24941); test: CDK activity assay with p33 ATP, CDK2/cyclinE; details: 1 μM ATP
T1 construct: C-terminal 6His-tagged, recombinant full-length CDK2 (MW=34 kDa); 6His (C); made in house; host or cells: Sf21 cells (baculovirus)
Experimental: CDK2/cyclinE (Accession Number for CDK2; EMBL M68520, for cyclinE1; GenBank NM_001238):
C-terminal 6His-tagged, recombinant full-length CDK2 (MW=34 kDa) in complex with N-terminal GST-tagged, recombinant full-length cyclinE1 (MW=74 kDa) were expressed with baculovirus system in Sf21 cells. Recombinant proteins were purified using Ni2+/NTA agarose and the purity of recombinant protein complex was measured to be around 76% by SDS-PAGE and Coomassie blue staining. Specific Activity of recombinant CDK2/cyclinE was 1336 U/mg, where one unit of CDK2/cylinE1 activity is defined as 1 nmol phosphate incorporated into 0.1 mg/ml histone H1 per minute at 30° C. with a final ATP concentration of 100 μM. Enzyme was stored with concentration of 0.1 mg/ml in 50 mM Tris/HCl pH 7.5, 150 mM NaCl, 0.03% Brij-35, 0.1 mM EGTA, 0.2 mM PMSF, 1 mM benzamidine, 0.1% 2-mercaptoethanol, 270 mM sucrose.

CDK6/cyclinD3 = molecular target: T2, CDK6/cyclinD3 (Homo sapiens, UniProt Q00534); test: CDK activity assay with p33 ATP, CDK6/cyclinD3; details: 1 μM ATP; read-out: CDK6/cyclinD IC50
T2 construct: N-terminal, 6His-tagged full-length human cdk6 (MW=38 kDa); 6His (N); made in house; host or cells: Sf21 cells
T2 sequence (Q00534 whole entry): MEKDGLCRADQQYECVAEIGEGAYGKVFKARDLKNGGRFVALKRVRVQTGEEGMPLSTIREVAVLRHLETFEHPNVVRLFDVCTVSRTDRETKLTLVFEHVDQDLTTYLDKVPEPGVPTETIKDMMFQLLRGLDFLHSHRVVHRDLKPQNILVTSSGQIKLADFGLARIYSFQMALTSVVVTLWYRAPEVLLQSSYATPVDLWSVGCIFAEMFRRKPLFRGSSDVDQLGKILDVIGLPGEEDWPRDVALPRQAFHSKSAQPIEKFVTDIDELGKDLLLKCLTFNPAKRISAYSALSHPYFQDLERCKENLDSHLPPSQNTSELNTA
T2 sequence (P30281 whole entry partner): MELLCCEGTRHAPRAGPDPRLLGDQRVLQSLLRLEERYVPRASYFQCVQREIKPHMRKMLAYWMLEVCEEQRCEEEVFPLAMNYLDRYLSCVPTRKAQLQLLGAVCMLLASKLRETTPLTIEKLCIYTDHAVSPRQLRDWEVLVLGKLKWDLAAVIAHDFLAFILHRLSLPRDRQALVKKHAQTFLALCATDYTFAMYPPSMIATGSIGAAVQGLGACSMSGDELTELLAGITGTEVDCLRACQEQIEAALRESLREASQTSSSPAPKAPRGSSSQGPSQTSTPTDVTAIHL
Experimental: CDK6/cyclinD3 (Accession Number for CDK6; GenBank X66365, for Cyclin D3; EMBL M90814):
N-terminal, 6His-tagged full-length human cdk6 (MW=38 kDa) complexed with N-terminal GST-tagged full-length human cyclin D3 (MW=59 kDa) were expressed in Sf21 cells. Recombinant protein complex was purified using glutathione-agarose and activated with CAK, and repurified with Ni2+/NTA-agarose column. Purity was measured to be at least 68%. Specific Activity was measured to be 39 U/mg, where one unit of cdk6/cyclinD3 activity is defined as 1 nmol phosphate incorporated into 0.1 mg/ml histone H1 per minute at 30° C. with a final ATP concentration of 100 μM. Enzyme was stored at concentration of 0.1 mg/ml in 50 mM Tris-HCl, pH 7.5, 270 mM sucrose, 150 mM NaCl, 1 mM benzamidine, 0.2 mM PMSF, 0.1% 2-mercaptoethanol, 0.1 mM EGTA, 0.03% Brij 35.

IC50 (HDAC) [nM]	IC50 (CDK2/cyclinE) [nM]	IC50 (CDK6/cyclinD3) [nM]	SMILES
100 to 1000	< 100	100 to 1000	CC(C)(C)c1cnc(CSc2cnc(NC(=O)CCCC(=O)NO)s2)o1 [Compound 5, N^1-(5-((5-tert-butyloxazol-2-yl)methylthio)thiazol-2-yl)-N^5-hydroxyglutaramide]
100 to 1000	< 100	100 to 1000	CC(C)(C)c1cnc(CSc2cnc(NC(=O)CCCCC(=O)NO)s2)o1 [Compound 6, N^1-(5-((5-tert-butyloxazol-2-yl)methylthio)-thiazol-2-yl)-N^6-hydroxyadipamide]
> 10000	< 100	100 to 1000	CC(C)(C)c1cnc(CSc2cnc(NC(=O)CCCNCCC(=O)NO)s2)o1 [Compound 13, N-(5-((5-tert-butyloxazol-2-yl)methylthio)thiazol-2-yl)-4-(3-(hydroxyamino)-3-oxopropylamino)butanamide]
